Where a name gives a salt, the structure may show the parent alone.
System: Ls-174t human colon cancer
Experiment: Antitumor therapeutic efficacy test in vivo
Parameters: species or system BALB/cA-nude mice
Protocol: [Antitumor Therapeutic Efficacy Test In Vivo]
Preparation methods: The drug was diluted with saline solution to required concentration.
Experimental animals: BALB/cA-nude mice, 6-7 weeks, ♀, purchased from Shanghai Slac Laboratory Animal Co., LTD. […] Environment: SPF level.
After tumors grew to the 150-300 mm^3, mice were randomly divided into teams (d0). The volume of tumors and the weight of the mice were measured and recorded for 2-3 times per week. The tumor volume (V) was calculated by the follow equation: V=½×a×b^2 wherein a, b represent length and width respectively.

SMILES: CCc1c2c(nc3ccc(OC(=O)N4CCC(N5CCCCC5)CC4)cc13)-c1cc3c(c(=O)n1C2)COC(=O)[C@]3(O)CC [CPT-11, Irinotecan hydrochloride]
- growth of Ls-174t human colon cancer in nude mice: inhibited the growth of Ls-174t human colon cancer in nude mice significantly
- % T/C D12 (10 mg/kg, IV, D0, 3): 45%
- Tumor inhibition rate (%) D12 (10 mg/kg, IV, D0, 3): 55%
- Partial regression (10 mg/kg, IV, D0, 3, number of animals): 0
